Legend:
Wistar rats [1] = conditions: clinically effective OCD treatment standard compounds; cited from earlier work
male NIH Swiss mice [2] = test: Marble burying assay (with rotorod); format: in vivo, mouse; conditions: marbles buried in 30 min, rotorod for motor impairment
Text: Marble burying in mice has been used to model anxiety disorders including obsessive-compulsive disorders (OCD) due to ethological study of the behavior (e.g. Gyertyan I. “Analysis of the marble burying response: Marbles serve to measure digging rather than evoke burying”, Behavioural Pharmacology 6: 24-31, (1995)) and due to the pharmacological effects of clinical standards (c.f., Njung'E K. Handley S L. “Evaluation of marble-burying behavior as a model of anxiety”, Pharmacology, Biochemistry & Behavior. 38: 63-67, (1991)); Borsini F., Podhorna J., and Marazziti, D. “Do animal models of anxiety predict anxiolytic effects of antidepressants?”, Psychopharmacology 163: 121-141, (2002)).
House experimentally-naïve male, NIH Swiss mice (Harlan Sprague-Dawley, Indianapolis, Ind.) weighing between 28-35 g in groups of 12 for at least three days prior to testing in a vivarium with 12 h light and dark cycles. Conduct experiments during the light cycle in a dimly lit experimental testing room. Dose mice with vehicle or test compound and, after a specified pretreatment interval (generally 30 min.), place each mouse individually on a rotorod (Ugo Basile 7650) operating at a speed of 6 revolutions/min. and observe for falling. […]
Clinically effective standard compounds suppress marble burying at doses that are devoid of motor-impairing effects as measured on the rotorod. […]

male NIH Swiss mice [3] = test: Nestlet shredding; format: in vivo, mouse; conditions: 30 min, rotorod for motor impairment
Text: Mice naturally will construct nests of material available in their living environment. Since this behavior is obsessive in nature, it has been used to model OCD (Xia Li, Denise Morrow and Jeffrey M. Witkin, “Decreases in nestlet shredding of mice by serotonin uptake inhibitors: comparison with marble burying”, Psychopharmacology, submitted Jul. 14, 2003). House experimentally-naïve male, NIH Swiss mice (Harlan Sprague-Dawley, Indianapolis, Ind.) weighing between 28-35 g in groups of 12 for at least three days prior to testing in a vivarium with a 12 h light/dark cycle. Conduct experiments during the light cycle in an experimental room with normal overhead fluorescent lighting. Dose mice with vehicle or test compound and after a specified pretreatment interval (generally 30 min.), place the mice individually in a 17×28×12 cm high plastic tub with about 5 mm sawdust shavings on the floor along with a pre-weighed multi-ply gauze pad (51 mm square). After 30 min., weigh the remainder of the gauze pad not removed by the mouse. Determine the weight of the gauze used for nestlet construction by subtraction. Compare the results for test compound treated mice to the results for vehicle control treated mice with Dunnett's test.
Clinically effective OCD treatment standard compounds suppress nestlet shredding at doses that are devoid of motor-impairing effects as measured by the rotorod test. […]

Wistar rats [4] = test: Schedule-induced polydipsia; format: in vivo, rat
Text: Schedule-Induced Polydipsia
Food-deprived rats exposed to intermittent presentations of food will drink amounts of water that are far in excess of their normal daily intake and in excess of their intake when given all of their food at one time (Falk J L. “Production of polydipsia in normal rats by an intermittent food schedule”, Science 133: 195-196, (1961)). This excessive behavior is persistent and has been used to model OCD.
Maintain Wistar rats on a food restricted diet (to maintain 85% free feeding weight), but with free access to water. Train the rats in a behavioral testing chamber to press a lever to receive a food pellet under a fixed interval schedule, such that the rats are rewarded with a 45 mg food pellet the first time they press a lever after a 120 second interval has elapsed. The fixed interval is then reset to 120 seconds and the process repeated. Thus, during a 90 min. test session, the rats can earn a maximum of 45 pellets. The behavioral chamber is also equipped with a water bottle that is weighed before and after the session to determine the amount of water consumed.
Administer test compounds on Tuesdays and Fridays. […] Compare the rates of lever pressing and water consumption for each animal's performance during sessions after test compound treatment with that animal's performance during control sessions, expressed as a percent of the control rate. […]

male NIH Swiss mice [5] = conditions: compounds used to treat OCD, literature; cited from earlier work

Which “Schedule-induced polydipsia (clinical standards)” value (Wistar rats [1]) does the source give for `CN(C)CCCN1c2ccccc2CCc2ccc(Cl)cc21` [chlomipramine] here?
Its value is “suppress schedule-induced polydipsia without producing notable changes in motor patterns, food intake, or behavior the following day”.

With `CN(C)CCCN1c2ccccc2Sc2ccc(Cl)cc21` [chlorpromazine] as the compound, how does the Marble burying (male NIH Swiss mice [2]) read?
Its Marble burying is “decrease marble burying only at doses that also disrupt rotorod performance”.

With `C[C@H](N)Cc1ccccc1` [d-amphetamine] as the compound, how does the Nestlet shredding (male NIH Swiss mice [3]) read?
The Nestlet shredding was “decreases nestlet shredding only at doses that produce motoric side effects”.

What about the “Effect on schedule-induced polydipsia with co-administered 5-HT2C antagonist” value (Wistar rats [4]; co-administration of the 5-HT2C receptor antagonist) of the same compound?
Its value is “not prevented by the 5HT2C receptor antagonist”.

And the “Schedule-induced polydipsia (water consumption)” value (Wistar rats [4]; food-restricted rats, 90 min session)?
Its value is “decreases excessive drinking only at behaviorally stimulating doses”.

Which results are given for `CNCCC(Oc1ccc(C(F)(F)F)cc1)c1ccccc1` (stereo not shown) [fluoxetine]?
Schedule-induced polydipsia (clinical standards) (Wistar rats [1]): suppress schedule-induced polydipsia without producing notable changes in motor patterns, food intake, or behavior the following day; Marble burying (clinical standards) (male NIH Swiss mice [5]): decrease burying
